In patent US9499550B2 (BRISTOL-MYERS SQUIBB COMPANY, priority 2012, dated 2016):

Columns and labels:
[1] = test system: HCV genotype 1a (H77 strain) replicon in HUH-7 cells; assay: HCV replicon luciferase reporter assay, genotype 1a; format: cell-based; details: Hepatitis C virus, Huh-7, 72 h, HCV genotype 1a replicon luciferase, 3 days incubation, read-out: LE_1a (EC50, range)
Method in brief: (§1)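 Replicon inhibition for both genotypes was measured as Renilla luciferase signal (EnduRen, 7.5 μM final, 2 h) after 3-day, 37° C exposure of replicon-bearing HUH-7 cells in 4% FCS DMEM, 0.5% DMSO. The 1b construct carries S1179I; the 1a H77 construct carries P1496L and S2204I. Twenty-point, 3-fold dilutions were fitted four-parametrically for EC50, and CC50 was taken from multiplexed Cell Titer-Blue.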

[2] = test system: HCV genotype 1b (Con1) replicon in HUH-7 cells; assay: HCV replicon luciferase reporter assay, genotype 1b; format: cell-based; details: Hepatitis C virus, Huh-7, 72 h, HCV genotype 1b replicon luciferase, 3 days incubation, read-out: LE_1b (EC50, range)
Method in brief: as §1

SMILES | EC50 [1] [nM] | EC50 [2] [nM]
CCOc1cc2ccnc(O[C@@H]3C[C@H]4C(=O)N[C@]5(C(=O)NS(=O)(=O)C6(C)CC6)C[C@H]5/C=C\CC[C@@H](C)C[C@@H](C)[C@H](NC(=O)OC(C)(C)C(F)(F)F)C(=O)N4C3)c2cc1F [Compound 5395, 1,1,1-trifluoro-2-methylpropan-2-yl((2R,6S,7R,9R,13aS,14aR,16aS,Z)-2-((6-ethoxy-7-fluoroisoquinolin-1-yl)oxy)-7,9-dimethyl-14a-(((1-methylcyclopropyl)sulfonyl)carbamoyl)-5,16-dioxo-1,2,3,5,6,7,8,9,10,11,13a,14,14a,15,16,16a-hexadecahydrocyclopropa[e]pyrrolo[1,2-a][1,4]diazacyclopentadecin-6-yl)carbamate] | 1.01 to 5 | 0.51 to 1
CCOc1cc2ccnc(O[C@@H]3C[C@H]4C(=O)N[C@]5(C(=O)NS(=O)(=O)C6(C)CC6)C[C@H]5/C=C\CC[C@@H](C)C[C@@H](C)[C@H](NC(=O)OC(C)(C)C(C)(F)F)C(=O)N4C3)c2cc1F [Compound 5397, 3,3-difluoro-2-methylbutan-2-yl((2R,6S,7R,9R,13aS,14aR,16aS,Z)-2-((6-ethoxy-7-fluoroisoquinolin-1-yl)oxy)-7,9-dimethyl-14a-(((1-methylcyclopropyl)sulfonyl)carbamoyl)-5,16-dioxo-1,2,3,5,6,7,8,9,10,11,13a,14,14a,15,16,16a-hexadecahydrocyclopropa[e]pyrrolo[1,2-a][1,4]diazacyclopentadecin-6-yl)carbamate] | 1.01 to 5 | 0.51 to 1
CCOc1cc2ccnc(O[C@@H]3C[C@H]4C(=O)N[C@]5(C(=O)NS(=O)(=O)C6CC6)C[C@H]5/C=C\CC[C@@H](C)C[C@@H](C)[C@H](NC(=O)OC(C)(C)C)C(=O)N4C3)c2cc1F [Compound 5399, tert-butyl ((2R,6S,7R,9R,13aS,14aR,16aS,Z)-14a-((cyclopropylsulfonyl)carbamoyl)-2-((6-ethoxy-7-fluoroisoquinolin-1-yl)oxy)-7,9-dimethyl-5,16-dioxo-1,2,3,5,6,7,8,9,10,11,13a,14,14a,15,16,16a-hexadecahydrocyclopropa[e]pyrrolo[1,2-a][1,4]diazacyclopentadecin-6-yl)carbamate] | 0.51 to 1 | 0.1 to 0.5
CCOc1cc2ccnc(O[C@@H]3C[C@H]4C(=O)N[C@]5(C(=O)NS(=O)(=O)C6CC6)C[C@H]5/C=C\CC[C@@H](C)C[C@@H](C)[C@H](NC(=O)OC(C)(C)C(F)(F)F)C(=O)N4C3)c2cc1F [Compound 5401, 1,1,1-trifluoro-2-methylpropan-2-yl((2R,6S,7R,9R,13aS,14aR,16aS,Z)-14a-((cyclopropylsulfonyl)carbamoyl)-2-((6-ethoxy-7-fluoroisoquinolin-1-yl)oxy)-7,9-dimethyl-5,16-dioxo-1,2,3,5,6,7,8,9,10,11,13a,14,14a,15,16,16a-hexadecahydrocyclopropa[e]pyrrolo[1,2-a][1,4]diazacyclopentadecin-6-yl)carbamate] | 1.01 to 5 | 0.1 to 0.5
CCOc1cc2ccnc(O[C@@H]3C[C@H]4C(=O)N[C@]5(C(=O)NS(=O)(=O)C6CC6)C[C@H]5/C=C\CC[C@@H](C)C[C@@H](C)[C@H](NC(=O)OC(C)(C)C(C)(F)F)C(=O)N4C3)c2cc1F [Compound 5403, 3,3-difluoro-2-methylbutan-2-yl((2R,6S,7R,9R,13aS,14aR,16aS,Z)-14a-((cyclopropylsulfonyl)carbamoyl)-2-((6-ethoxy-7-fluoroisoquinolin-1-yl)oxy)-7,9-dimethyl-5,16-dioxo-1,2,3,5,6,7,8,9,10,11,13a,14,14a,15,16,16a-hexadecahydrocyclopropa[e]pyrrolo[1,2-a][1,4]diazacyclopentadecin-6-yl)carbamate] | 0.51 to 1 | 0.1 to 0.5
CCOc1cc2ccnc(O[C@@H]3C[C@H]4C(=O)N[C@]5(C(=O)NS(=O)(=O)C6CC6)C[C@H]5/C=C\CC[C@@H](C)C[C@@H](CC)[C@H](NC(=O)OC(C)(C)C)C(=O)N4C3)c2cc1F [Compound 5405, tert-butyl ((2R,6S,7R,9R,13aS,14aR,16aS,Z)-14a-((cyclopropylsulfonyl)carbamoyl)-2-((6-ethoxy-7-fluoroisoquinolin-1-yl)oxy)-7-ethyl-9-methyl-5,16-dioxo-1,2,3,5,6,7,8,9,10,11,13a,14,14a,15,16,16a-hexadecahydrocyclopropa[e]pyrrolo[1,2-a][1,4]diazacyclopentadecin-6-yl)carbamate] | 1.01 to 5 | 0.51 to 1
CCOc1cc2ccnc(O[C@@H]3C[C@H]4C(=O)N[C@]5(C(=O)NS(=O)(=O)C6CC6)C[C@H]5/C=C\CC[C@@H](C)C[C@@H](CC)[C@H](NC(=O)OC(C)(C)C(F)(F)F)C(=O)N4C3)c2cc1F [Compound 5407, 1,1,1-trifluoro-2-methylpropan-2-yl((2R,6S,7R,9R,13aS,14aR,16aS,Z)-14a-((cyclopropylsulfonyl)carbamoyl)-2-((6-ethoxy-7-fluoroisoquinolin-1-yl)oxy)-7-ethyl-9-methyl-5,16-dioxo-1,2,3,5,6,7,8,9,10,11,13a,14,14a,15,16,16a-hexadecahydrocyclopropa[e]pyrrolo[1,2-a][1,4]diazacyclopentadecin-6-yl)carbamate] | 1.01 to 5 | 0.51 to 1
CCOc1cc2ccnc(O[C@@H]3C[C@H]4C(=O)N[C@]5(C(=O)NS(=O)(=O)C6CC6)C[C@H]5/C=C\CC[C@@H](C)C[C@@H](CC)[C@H](NC(=O)OC(C)(C)C(C)(F)F)C(=O)N4C3)c2cc1F [Compound 5409, 3,3-difluoro-2-methylbutan-2-yl((2R,6S,7R,9R,13aS,14aR,16aS,Z)-14a-((cyclopropylsulfonyl)carbamoyl)-2-((6-ethoxy-7-fluoroisoquinolin-1-yl)oxy)-7-ethyl-9-methyl-5,16-dioxo-1,2,3,5,6,7,8,9,10,11,13a,14,14a,15,16,16a-hexadecahydrocyclopropa[e]pyrrolo[1,2-a][1,4]diazacyclopentadecin-6-yl)carbamate] | 1.01 to 5 | 0.51 to 1
CCOc1cc2ccnc(O[C@@H]3C[C@H]4C(=O)N[C@]5(C(=O)NS(=O)(=O)C6(CF)CC6)C[C@H]5/C=C\CC[C@H](C)C[C@@H](C)[C@H](NC(=O)OC(C)(C)C)C(=O)N4C3)c2cc1F [Compound 5410, tert-butyl ((2R,6S,7R,9S,13aS,14aR,16aS,Z)-2-((6-ethoxy-7-fluoroisoquinolin-1-yl)oxy)-14a-(((1-(fluoromethyl)cyclopropyl)sulfonyl)carbamoyl)-7,9-dimethyl-5,16-dioxo-1,2,3,5,6,7,8,9,10,11,13a,14,14a,15,16,16a-hexadecahydrocyclopropa[e]pyrrolo[1,2-a][1,4]diazacyclopentadecin-6-yl)carbamate] | 5.01 to 35 | 1.01 to 5
CCOc1cc2ccnc(O[C@@H]3C[C@H]4C(=O)N[C@]5(C(=O)NS(=O)(=O)C6(CF)CC6)C[C@H]5/C=C\CC[C@@H](C)C[C@@H](C)[C@H](NC(=O)OC(C)(C)C)C(=O)N4C3)c2cc1F [Compound 5411, tert-butyl ((2R,6S,7R,9R,13aS,14aR,16aS,Z)-2-((6-ethoxy-7-fluoroisoquinolin-1-yl)oxy)-14a-(((1-(fluoromethyl)cyclopropyl)sulfonyl)carbamoyl)-7,9-dimethyl-5,16-dioxo-1,2,3,5,6,7,8,9,10,11,13a,14,14a,15,16,16a-hexadecahydrocyclopropa[e]pyrrolo[1,2-a][1,4]diazacyclopentadecin-6-yl)carbamate] | 1.01 to 5 | 0.51 to 1
CCOc1cc2ccnc(O[C@@H]3C[C@H]4C(=O)N[C@]5(C(=O)NS(=O)(=O)C6(CF)CC6)C[C@H]5/C=C\CC[C@@H](C)C[C@@H](C)[C@H](NC(=O)OC(C)(C)C(F)(F)F)C(=O)N4C3)c2cc1F [Compound 5413, 1,1,1-trifluoro-2-methylpropan-2-yl((2R,6S,7R,9R,13aS,14aR,16aS,Z)-2-((6-ethoxy-7-fluoroisoquinolin-1-yl)oxy)-14a-(((1-(fluoromethyl)cyclopropyl)sulfonyl)carbamoyl)-7,9-dimethyl-5,16-dioxo-1,2,3,5,6,7,8,9,10,11,13a,14,14a,15,16,16a-hexadecahydrocyclopropa[e]pyrrolo[1,2-a][1,4]diazacyclopentadecin-6-yl)carbamate] | 1.01 to 5 | 0.51 to 1
CCOc1cc2ccnc(O[C@@H]3C[C@H]4C(=O)N[C@]5(C(=O)NS(=O)(=O)C6(CF)CC6)C[C@H]5/C=C\CC[C@@H](C)C[C@@H](C)[C@H](NC(=O)OC(C)(C)C(C)(F)F)C(=O)N4C3)c2cc1F [Compound 5415, 3,3-difluoro-2-methylbutan-2-yl((2R,6S,7R,9R,13aS,14aR,16aS,Z)-2-((6-ethoxy-7-fluoroisoquinolin-1-yl)oxy)-14a-(((1-(fluoromethyl)cyclopropyl)sulfonyl)carbamoyl)-7,9-dimethyl-5,16-dioxo-1,2,3,5,6,7,8,9,10,11,13a,14,14a,15,16,16a-hexadecahydrocyclopropa[e]pyrrolo[1,2-a][1,4]diazacyclopentadecin-6-yl)carbamate] | 1.01 to 5 | 0.51 to 1
CC[C@@H]1C[C@H](C)CC/C=C\[C@@H]2C[C@@]2(C(=O)NS(=O)(=O)C2(C)CC2)NC(=O)[C@@H]2C[C@@H](Oc3ncc(N4CCOCC4)c4ccccc34)CN2C(=O)[C@H]1NC(=O)OC(C)(C)C [Compound 5417] | 1.01 to 5 | 1.01 to 5
